biological target: TF/FVIIa (Homo sapiens, UniProt P08709); assay: TF/factor VIIa inhibition (TF/FVIIa-IC50); type: biochemical
Sequence (P08709 213-466 limits assumed): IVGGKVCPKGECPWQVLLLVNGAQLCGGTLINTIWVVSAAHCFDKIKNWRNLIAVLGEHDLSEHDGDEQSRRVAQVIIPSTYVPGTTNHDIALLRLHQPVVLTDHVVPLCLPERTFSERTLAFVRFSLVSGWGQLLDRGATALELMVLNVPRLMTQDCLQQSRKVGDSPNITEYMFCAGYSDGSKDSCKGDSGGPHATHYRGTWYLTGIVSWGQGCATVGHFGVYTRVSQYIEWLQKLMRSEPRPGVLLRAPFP
Sequence (P08709 61-212 partner limits assumed): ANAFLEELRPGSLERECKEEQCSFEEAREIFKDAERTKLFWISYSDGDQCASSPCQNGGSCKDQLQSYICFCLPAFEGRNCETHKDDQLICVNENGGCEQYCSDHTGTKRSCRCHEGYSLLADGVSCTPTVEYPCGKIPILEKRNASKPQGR
Sequence (P13726 33-295 partner): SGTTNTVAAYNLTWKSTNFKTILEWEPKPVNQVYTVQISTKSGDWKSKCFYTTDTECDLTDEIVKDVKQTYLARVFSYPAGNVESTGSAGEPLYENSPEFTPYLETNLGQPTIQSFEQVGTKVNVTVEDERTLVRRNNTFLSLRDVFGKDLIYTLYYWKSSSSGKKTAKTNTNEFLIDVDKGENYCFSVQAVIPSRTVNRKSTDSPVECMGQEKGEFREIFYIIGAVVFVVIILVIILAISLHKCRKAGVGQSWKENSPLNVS

IC50 [µM]	Structure (SMILES)
3.9	O=C(Nc1ccc(N2CCOCC2=O)cc1)[C@H]1CCCN1C(=O)c1ccc(Cl)s1 [AB1, N-[4-(3-oxomorpholin-4-yl)phenyl]-(R)-1-(5-chlorothiophene-2-carbonyl)-pyrrolidine-2-carboxamide]
0.023	O=C(Nc1ccc(N2CCOCC2=O)cc1)[C@H]1CCCN1C(=O)Nc1ccc(Cl)cc1 [Compound A1, 1-N-[(4-chlorophenyl)]-2-N-{[4-(3-oxomorpholin-4-yl)phenyl]}-(R)-pyrrolidine-1,2-dicarboxamide]

biological target: FXa (Homo sapiens, UniProt P00742); assay: Factor Xa inhibition (FXa-IC50); type: biochemical
Sequence (P00742 235-488 limits assumed): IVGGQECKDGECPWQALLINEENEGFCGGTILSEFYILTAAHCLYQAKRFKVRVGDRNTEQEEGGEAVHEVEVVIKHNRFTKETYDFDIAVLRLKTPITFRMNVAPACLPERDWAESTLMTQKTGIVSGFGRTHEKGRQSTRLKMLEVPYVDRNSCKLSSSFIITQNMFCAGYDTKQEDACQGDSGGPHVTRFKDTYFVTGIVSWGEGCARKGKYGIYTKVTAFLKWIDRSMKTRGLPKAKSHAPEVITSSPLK
Sequence (P00742 41-179 partner limits assumed): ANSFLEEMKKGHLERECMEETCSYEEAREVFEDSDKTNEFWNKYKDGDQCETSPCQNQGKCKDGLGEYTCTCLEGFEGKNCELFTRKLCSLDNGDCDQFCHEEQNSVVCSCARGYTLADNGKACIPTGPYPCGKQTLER

IC50 [µM]	Structure (SMILES)
0.027	O=C(Nc1ccc(N2CCOCC2=O)cc1)[C@H]1COCN1C(=O)Nc1ccc(Cl)cc1 [Compound A2, 3-N-[(4-chlorophenyl)]-4-N-{[4-(3-oxomorpholin-4-yl)phenyl]}-(R)-oxazolidine-3,4-dicarboxamide]

test system: not given; assay: not given

Structure (SMILES)	melting point [°C]
CCO[C@@H]1C[C@H](C(=O)Nc2ccc(N3CCOCC3=O)c(C)c2)N(C(=O)Nc2ccc(Cl)cc2)C1	117
O=C(Nc1ccc(N2CCOCC2=O)cc1)[C@H]1C=CCN1C(=O)Nc1ccc(Cl)cc1	245
CO[C@@H]1C[C@H](C(=O)Nc2ccc(N3CCOCC3=O)cc2)N(C(=O)Nc2ccc(Cl)cc2)C1	133
CC(C)C(=O)O[C@@H]1C[C@H](C(=O)Nc2ccc(N3CCOCC3=O)cc2)N(C(=O)Nc2ccc(Cl)cc2)C1	129
O=C(Nc1ccc(N2CCOCC2=O)cc1)[C@H]1C[C@@H](O)CN1C(=O)Cc1ccc(Cl)cc1	141
O=C(NC1CCC(N2CCOCC2=O)CC1)[C@H]1C[C@@H](O)CN1C(=O)Nc1ccc(Cl)cc1 (stereo partly shown)	245
O=C1C[C@H](C(=O)Nc2ccc(N3CCOCC3=O)cc2)N(C(=O)Nc2ccc(Cl)cc2)C1	154
O=C(Nc1ccc(N2CCOCC2=O)cc1)[C@H]1C[C@@H](O)CN1C(=O)/C=C/c1ccc(Cl)s1	151

The next lines start with the values.

melting point [°C]	Structure (SMILES)
195	O=C(Nc1ccc(N2CCOCC2=O)cc1)[C@H]1CCCN1C(=O)c1ccc(Cl)s1 [AB1, N-[4-(3-oxomorpholin-4-yl)phenyl]-(R)-1-(5-chlorothiophene-2-carbonyl)-pyrrolidine-2-carboxamide]
227.6	O=C(Nc1ccc(N2CCOCC2=O)cc1)[C@H]1CCCN1C(=O)Nc1ccc(Cl)cc1 [Compound A1, 1-N-[(4-chlorophenyl)]-2-N-{[4-(3-oxomorpholin-4-yl)phenyl]}-(R)-pyrrolidine-1,2-dicarboxamide]

From patent US7906516B2, “Carbonyl compounds” (Merck Patent GmbH, priority 2003, dated 2011)
